pEC50: −log10 of the molar value. Converted amounts (≈) assume the structure as drawn.
What was measured:
P. aeruginosa ATCC 27853 = assay: microbe, parasite or virus in culture; type: cell-based; conditions: Pseudomonas aeruginosa, ATCC27853, read-out: Minimum inhibitory concentration, P. aeruginosa ATCC 27853
P. aeruginosa CDC-0054 = assay: microbe, parasite or virus in culture; type: cell-based; conditions: Pseudomonas aeruginosa, CDC0054, read-out: Minimum inhibitory concentration, P. aeruginosa CDC-0054
P. aeruginosa CDC-0090 = assay: microbe, parasite or virus in culture; type: cell-based; conditions: Pseudomonas aeruginosa, CDC0090, read-out: Minimum inhibitory concentration, P. aeruginosa CDC-0090
A. baumannii CDC-0083 = assay: microbe, parasite or virus in culture; type: cell-based; conditions: Acinetobacter baumannii, CDC0083, read-out: MIC, A. baumannii CDC-0083
A. baumannii 1258916 = assay: microbe, parasite or virus in culture; type: cell-based, Acinetobacter baumannii; conditions: Acinetobacter baumannii, 1258916, read-out: MIC, A. baumannii 1258916
[1] = molecular target: T1, PBP3 from Escherichia coli (K-12) (Escherichia coli, UniProt P0AD68); assay: Bocillin-FL fluorescence polarization competition binding, E. coli PBP3
T1 construct: made in house
T1 sequence (P0AD68 1-577): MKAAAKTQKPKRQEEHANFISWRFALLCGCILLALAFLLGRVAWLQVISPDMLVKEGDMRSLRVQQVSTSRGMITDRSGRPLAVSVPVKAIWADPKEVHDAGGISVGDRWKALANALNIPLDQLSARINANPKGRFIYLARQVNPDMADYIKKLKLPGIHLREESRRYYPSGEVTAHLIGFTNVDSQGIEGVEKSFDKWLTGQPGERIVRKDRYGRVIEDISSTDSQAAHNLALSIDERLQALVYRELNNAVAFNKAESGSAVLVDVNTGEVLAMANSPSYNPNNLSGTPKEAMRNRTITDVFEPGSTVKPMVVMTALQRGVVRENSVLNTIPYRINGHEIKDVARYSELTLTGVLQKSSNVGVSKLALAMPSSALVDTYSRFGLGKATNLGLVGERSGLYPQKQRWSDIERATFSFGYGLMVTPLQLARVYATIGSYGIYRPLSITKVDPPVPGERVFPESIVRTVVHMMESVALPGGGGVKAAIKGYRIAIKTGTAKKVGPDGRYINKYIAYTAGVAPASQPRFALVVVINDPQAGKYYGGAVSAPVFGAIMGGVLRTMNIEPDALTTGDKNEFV
How it was run: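 Purified PBPs pre-incubated with inhibitor (E. coli PBP3 1.5 μM, 30 min; P. aeruginosa PBP3 0.75 μM, A. baumannii PBP1a 1 μM and PBP3 0.2 μM, 15 min), then Bocillin-FL 0.1 μM (0.05 μM for PBP1a) added; FP read up to 60 min. EC50 = concentration halving bound Bocillin-FL.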

A. baumannii CDC-0036 = assay: microbe, parasite or virus in culture; type: cell-based; conditions: Acinetobacter baumannii, CDC0036, read-out: MIC, A. baumannii CDC-0036
[2] = system: B. thailandensis ATCC 700388; assay: microbe, parasite or virus in culture; type: cell-based; conditions: Burkholderia thailandensis, ATCC700388, read-out: Minimum inhibitory concentration (MIC), B. thailandensis ATCC 700388
[3] = system: P. aeruginosa (ΔmexAB-oprM); assay: Broth microdilution MIC in iron-depleted CAMHB (IDM); type: cell-based; conditions: Pseudomonas aeruginosa; iron-depleted CAMHB (IDM); […]; read-out: Minimum inhibitory concentration, P. aeruginosa ΔmexAB-oprM
P. aeruginosa CDC-0110 = assay: microbe, parasite or virus in culture; type: cell-based; conditions: Pseudomonas aeruginosa, CDC0110, read-out: Minimum inhibitory concentration, P. aeruginosa CDC-0110

SMILES	MIC (P. aeruginosa ATCC 27853) [mg/L]	MIC (P. aeruginosa CDC-0054) [mg/L]	MIC (P. aeruginosa CDC-0090) [mg/L]	MIC (A. baumannii CDC-0083) [mg/L]	MIC (A. baumannii 1258916) [mg/L]	pEC50 [1]	MIC (A. baumannii CDC-0036) [mg/L]	MIC [2] [mg/L]	MIC [3] [mg/L]	MIC (P. aeruginosa CDC-0110) [mg/L]
O=C(NCCCN1CCN(C(=O)NC(C(=O)N[C@H]2Cc3ccc(F)c(C(=O)O)c3OB2O)c2cc(F)c(O)c(O)c2Cl)C(=O)C1=O)c1cc(F)ncc1F (mixture of isomers) [Example 405]	2 to 4	2 to 4	2 to 4	< 1	2 to 4	> 5.00	2 to 4	< 1	< 1	2 to 4
O=C(NCCCN1CCN(C(=O)N[C@@H](C(=O)N[C@H]2Cc3ccc(F)c(C(=O)O)c3OB2O)c2cc(F)c(O)c(O)c2Cl)C(=O)C1=O)c1cc(F)nc(F)c1 (racemic) [Example 401]	2 to 4 (≈ 2.56 to 5.12 µM)	< 1	< 1	2 to 4 (≈ 2.56 to 5.12 µM)	< 1	> 5.00	2 to 4 (≈ 2.56 to 5.12 µM)	> 128	< 1	< 1
O=C(NCCCN1CCN(C(=O)N[C@@H](C(=O)N[C@H]2Cc3ccc(F)c(C(=O)O)c3OB2O)c2cc(F)c(O)c(O)c2Cl)C(=O)C1=O)c1ccc(O)cc1F (racemic) [Example 417]	8 to 16 (≈ 10.3 to 20.6 µM)	8 to 16 (≈ 10.3 to 20.6 µM)	8 to 16 (≈ 10.3 to 20.6 µM)	> 128	< 1	> 5.00	2 to 4 (≈ 2.57 to 5.14 µM)	> 128	< 1	32 to 64 (≈ 41.1 to 82.3 µM)
O=C(NCCCN1CCN(C(=O)N[C@@H](C(=O)N[C@H]2Cc3ccc(F)c(C(=O)O)c3OB2O)c2cc(F)c(O)c(O)c2Cl)C(=O)C1=O)c1c(F)cc(O)cc1F (racemic) [Example 420]	2 to 4 (≈ 2.51 to 5.03 µM)	2 to 4 (≈ 2.51 to 5.03 µM)	< 1	> 128	2 to 4 (≈ 2.51 to 5.03 µM)	> 5.00	2 to 4 (≈ 2.51 to 5.03 µM)	2 to 4 (≈ 2.51 to 5.03 µM)	< 1	< 1
CS(=O)(=O)N1CCN(C(=O)N[C@@H](C(=O)N[C@H]2Cc3cccc(C(=O)O)c3OB2O)c2ccc(P(=O)(O)O)cc2)C1=O (single isomer, unassigned) [Example 6]	32 to 64 (≈ 52.4 to 105 µM)	> 128	> 128	> 128	32 to 64 (≈ 52.4 to 105 µM)	> 5.00	32 to 64 (≈ 52.4 to 105 µM)	8 to 16 (≈ 13.1 to 26.2 µM)	8 to 16 (≈ 13.1 to 26.2 µM)	32 to 64 (≈ 52.4 to 105 µM)
O=C(NCCCN1CCN(C(=O)N[C@H](C(=O)N[C@H]2Cc3ccc(F)c(C(=O)O)c3OB2O)c2cc(F)c(O)c(O)c2Cl)C(=O)C1=O)c1ccc(O)cc1Cl (single isomer, unassigned) [Example 470]	2 to 4 (≈ 2.52 to 5.04 µM)	< 1	2 to 4 (≈ 2.52 to 5.04 µM)	> 128	> 128	3.60 to 4.30	32 to 64 (≈ 40.3 to 80.6 µM)	> 128	< 1	8 to 16 (≈ 10.1 to 20.1 µM)
O=C(NCCCN1CCN(C(=O)N[C@@H](C(=O)N[C@H]2Cc3ccc(F)c(C(=O)O)c3OB2O)c2cc(F)c(O)c(O)c2Cl)C(=O)C1=O)c1ccc(O)cc1Cl (single isomer, unassigned) [Example 471]	< 1	< 1	< 1	> 128	< 1	> 5.00	2 to 4 (≈ 2.52 to 5.04 µM)	< 1	< 1	< 1
O=C(NCCCN1CCN(C(=O)N[C@H](C(=O)N[C@H]2Cc3ccc(F)c(C(=O)O)c3OB2O)c2cc(F)c(O)c(O)c2Cl)C(=O)C1=O)c1cc(F)c(O)cc1F (single isomer, unassigned) [Example 472]	2 to 4 (≈ 2.51 to 5.03 µM)	< 1	2 to 4 (≈ 2.51 to 5.03 µM)	> 128	8 to 16 (≈ 10.1 to 20.1 µM)	3.60 to 4.30	8 to 16 (≈ 10.1 to 20.1 µM)	2 to 4 (≈ 2.51 to 5.03 µM)	< 1	< 1
O=C(NCCCN1CCN(C(=O)N[C@@H](C(=O)N[C@H]2Cc3ccc(F)c(C(=O)O)c3OB2O)c2cc(F)c(O)c(O)c2Cl)C(=O)C1=O)c1cc(F)c(O)cc1F (single isomer, unassigned) [Example 473]	2 to 4 (≈ 2.51 to 5.03 µM)	< 1	2 to 4 (≈ 2.51 to 5.03 µM)	> 128	2 to 4 (≈ 2.51 to 5.03 µM)	> 5.00	2 to 4 (≈ 2.51 to 5.03 µM)	< 1	< 1	< 1
O=C(NCCCS(=O)(=O)N1CCN(C(=O)NC(C(=O)N[C@H]2Cc3ccc(F)c(C(=O)O)c3OB2O)c2cc(F)c(O)c(O)c2Cl)C1=O)Nc1cccc(O)c1 (stereo partly drawn) [Example 277, (3R)-3-(2-(2-chloro-5-fluoro-3,4-dihydroxyphenyl)-2-(3-((3-(3-(3-hydroxyphenyl)ureido)propyl)sulfonyl)-2-oxoimidazolidine-1-carboxamido)acetamido)-7-fluoro-2-hydroxy-3,4-dihydro-2H-benzo[e][1,2]oxaborinine-8-carboxylic acid]	2 to 4 (≈ 2.47 to 4.93 µM)	2 to 4 (≈ 2.47 to 4.93 µM)	2 to 4 (≈ 2.47 to 4.93 µM)	< 1	2 to 4 (≈ 2.47 to 4.93 µM)	> 5.00	2 to 4 (≈ 2.47 to 4.93 µM)	32 to 64 (≈ 39.5 to 78.9 µM)	< 1	8 to 16 (≈ 9.87 to 19.7 µM)
O=C(NCCCS(=O)(=O)N1CCN(C(=O)NC(C(=O)N[C@H]2Cc3ccc(F)c(C(=O)O)c3OB2O)c2cc(F)c(O)c(O)c2Cl)C1=O)Nc1cccnc1 (stereo partly drawn) [Example 278, (3R)-3-(2-(2-chloro-5-fluoro-3,4-dihydroxyphenyl)-2-(2-oxo-3-((3-(3-(pyridin-3-yl)ureido)propyl)sulfonyl)imidazolidine-1-carboxamido)acetamido)-7-fluoro-2-hydroxy-3,4-dihydro-2H-benzo[e][1,2]oxaborinine-8-carboxylic acid]	2 to 4 (≈ 2.51 to 5.03 µM)	2 to 4 (≈ 2.51 to 5.03 µM)	2 to 4 (≈ 2.51 to 5.03 µM)	< 1	< 1	> 5.00	2 to 4 (≈ 2.51 to 5.03 µM)	2 to 4 (≈ 2.51 to 5.03 µM)	< 1	2 to 4 (≈ 2.51 to 5.03 µM)
O=C(NCCN1CCN(C(=O)N[C@@H](C(=O)N[C@H]2Cc3ccc(F)c(C(=O)O)c3OB2O)c2cc(F)c(O)c(O)c2Cl)C1=O)Nc1ccc(O)cc1 [Example 279, (R)-3-((R)-2-(2-chloro-5-fluoro-3,4-dihydroxyphenyl)-2-(3-(2-(3-(4-hydroxyphenyl)ureido)ethyl)-2-oxoimidazolidine-1-carboxamido)acetamido)-7-fluoro-2-hydroxy-3,4-dihydro-2H-benzo[e][1,2]oxaborinine-8-carboxylic acid]	2 to 4 (≈ 2.73 to 5.46 µM)	< 1	2 to 4 (≈ 2.73 to 5.46 µM)	< 1	< 1	> 5.00	< 1	< 1	< 1	< 1
O=C(NCCCN1CCN(C(=O)NC(C(=O)N[C@H]2Cc3ccc(F)c(C(=O)O)c3OB2O)c2cc(F)c(O)c(O)c2Cl)C1=O)c1ccc(O)cc1 (stereo partly drawn) [Example 280, (3R)-3-(2-(2-chloro-5-fluoro-3,4-dihydroxyphenyl)-2-(3-(3-(4-hydroxybenzamido)propyl)-2-oxoimidazolidine-1-carboxamido)acetamido)-7-fluoro-2-hydroxy-3,4-dihydro-2H-benzo[e][1,2]oxaborinine-8-carboxylic acid]	2 to 4 (≈ 2.73 to 5.47 µM)	2 to 4 (≈ 2.73 to 5.47 µM)	2 to 4 (≈ 2.73 to 5.47 µM)	2 to 4 (≈ 2.73 to 5.47 µM)	< 1	4.30 to 5.00	2 to 4 (≈ 2.73 to 5.47 µM)	2 to 4 (≈ 2.73 to 5.47 µM)	< 1	2 to 4 (≈ 2.73 to 5.47 µM)
O=C(NCCCN1CCN(C(=O)NC(C(=O)N[C@H]2Cc3ccc(F)c(C(=O)O)c3OB2O)c2cc(F)c(O)c(O)c2Cl)C1=O)c1cccnc1 (stereo partly drawn) [Example 281, (3R)-3-(2-(2-chloro-5-fluoro-3,4-dihydroxyphenyl)-2-(3-(3-(nicotinamido)propyl)-2-oxoimidazolidine-1-carboxamido)acetamido)-7-fluoro-2-hydroxy-3,4-dihydro-2H-benzo[e][1,2]oxaborinine-8-carboxylic acid]	2 to 4 (≈ 2.79 to 5.58 µM)	8 to 16 (≈ 11.2 to 22.3 µM)	2 to 4 (≈ 2.79 to 5.58 µM)	8 to 16 (≈ 11.2 to 22.3 µM)	< 1	4.30 to 5.00	2 to 4 (≈ 2.79 to 5.58 µM)	2 to 4 (≈ 2.79 to 5.58 µM)	< 1	2 to 4 (≈ 2.79 to 5.58 µM)
O=C(NCCCN1CCN(C(=O)NC(C(=O)N[C@H]2Cc3ccc(F)c(C(=O)O)c3OB2O)c2cc(F)c(O)c(O)c2Cl)C(=O)C1=O)c1ccc(F)c(O)c1Cl (stereo partly drawn) [Example 412, (3R)-3-(2-(4-(3-(2-chloro-4-fluoro-3-hydroxybenzamido)propyl)-2,3-dioxopiperazine-1-carboxamido)-2-(2-chloro-5-fluoro-3,4-dihydroxyphenyl)acetamido)-7-fluoro-2-hydroxy-3,4-dihydro-2H-benzo[e][1,2]oxaborinine-8-carboxylic acid]	< 1	< 1	2 to 4 (≈ 2.46 to 4.92 µM)	8 to 16 (≈ 9.85 to 19.7 µM)	2 to 4 (≈ 2.46 to 4.92 µM)	> 5.00	8 to 16 (≈ 9.85 to 19.7 µM)	2 to 4 (≈ 2.46 to 4.92 µM)	–	< 1

Source: patent US20240270762A1, “PENICILLIN-BINDING PROTEIN INHIBITORS” (priority 2021, published 2024)
